Columns and labels:
[1] = Oxidation resistance of hydroquinone solvents, gassing with dry air at 140° C., 50 hours; type: physicochemical; conditions: 36 liters dry air per hour, 150 ml solvent; gas chromatography
Experimental: The hydroquinone solvent content in percent based on the starting hydroquinone content was determined gas chromatographically and set forth in Table 5.

[2] = Oxidation breakdown on gassing with dry air at 140° C., 2.5 hours; type: physicochemical; conditions: 36 liters dry air per hour, 150 ml urea, decrease of urea based on starting content
Experimental: In a gassing apparatus equipped with gassing frit and intensive condenser in each case gassing was carried out with 150 ml of the ureas set forth in Table 4 using 36 liters of dry air per hour at a temperature of 140° C. for 2.5 hours. During the test half hourly samples were drawn off and the oxidative breakdown followed by means of capillary gas chromatography. As a measure for the oxidative breakdown the decrease of the amount of urea in percentage based on the starting urea content is used.

Density = type: physicochemical
Viscosity = type: physicochemical
[3] = Mutual solubility of urea and water; type: physicochemical
[4] = in words; German AS; cited from earlier work

Compound	Hydroquinone Solvent Content (%) after 50 hours Gassing at 140° C. [1]	Oxidation Breakdown After 2.5 hours [2]	other results
CCCCC(CC)COP(=O)(OCC(CC)CCCC)OCC(CC)CCCC (stereo not drawn) [tris-2-ethylhexyl phosphate]	88.3%	–	–
CC(C)N(C(=O)N(C)c1ccccc1)C(C)C [N,N-di-i-propyl-N'-methyl-N'-phenylurea]	–	0%	–
CCCCN(CCCC)C(=O)N(CC)CC [N,N-diethyl-N',N'-dibutylurea, reference compound]	86.6%	9.2%	–
CCN(CC)C(=O)N(C)c1ccccc1 [N,N-diethyl-N'-methyl-N'-phenylurea]	–	0%	Density (50° C.) (Density; Table 2): 0.9941 g/mL
CC(C)N(C(=O)N(C)C)C(C)C [N,N-dimethyl-N'-di-i-propylurea, reference compound]	–	2.6%	–
CN(C)C(=O)N(C)c1ccccc1 [N,N,N'-trimethyl-N'-phenylurea]	–	0%	Density (50° C.) (Density; Table 2): 1.0392 g/mL
methylcyclohexyl acetate	77.4%	–	–
CCCN(CCC)C(=O)N(C)c1ccccc1 [N,N-dipropyl-N'-methyl-N'-phenylurea]	100.0%	0%	Density (50° C.) (Density; Table 2): 0.9690 g/mL
CCCCN(CCCC)C(=O)N(C)c1ccccc1 [N,N-dibutyl-N'-methyl-N'-phenylurea]	100.0%	0%	Density (50° C.) (Density; Table 2): 0.9499 g/mL; Density (50° C.) (Density; Table 3): 0.950 g/mL; Viscosity (50° C.) (Viscosity): 9.2 cP; Solubility in Water at 20° C. [3]: 0.01%
CCC(C)N(C)C(=O)N(C)c1ccccc1 (stereo not drawn) [N,N'-dimethyl-N-s-butyl-N'-phenylurea]	–	0%	–
CC(C)(C)c1ccccc1 [tert. butyl benzene]	–	–	oxidation resistance [4]: oxidation resistant
CC(C)CC(O)CC(C)C [di-i-butylcarbinol]	16.6%	–	–
CN(C(=O)N1CCOCC1)c1ccccc1 [N'-methyl-N'-phenylcarbamoyl-N-morpholine]	–	0%	–
N,N-di-i-propyl-N'-phenylurea	100.0%	–	–

From patent US4349526A, “Process for the production of hydrogen peroxide” (Degussa Aktiengesellschaft, priority 1980, dated 1982)
